Article PMC5608804, “Stepwise Evolution Improves Identification of Diverse Peptides Binding to a Protein Target” (Scientific Reports, 2017)

Molecular target: T1, streptavidin (Streptomyces avidinii, UniProt P22629)
T1 construct: purchased GE Healthcare (Little Chalfont, UK)
Experiment: Cy5-streptavidin binding on HotSpot discovery array, 5-mer L-peptide library
Details: for S/B: signal to background ratio
Method in brief: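 Array of 2,476,099 5-mer peptides (19 amino acids, no cysteine) with Gly-Ser linkers, probed overnight at 4 °C with 0.5 µg/ml Cy5-streptavidin in Tris pH 7.4 buffer containing casein or BSA plus Tween-20. Cy5 fluorescence read at 635 nm; peptides selected by signal-to-background >4 across three arrays.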

[1] = 5-mer L-peptide library array, Cy5-streptavidin, from average of three arrays
[2] = 5-mer L-peptide library array, Cy5-streptavidin, from the average of three arrays
[3] = 5-mer L-peptide library array, Cy5-streptavidin
[4] = 5-mer L-peptide library, from the average of three arrays
[5] = average of three arrays, L-peptide 5-mer library

T1 sequence (P22629 25-183): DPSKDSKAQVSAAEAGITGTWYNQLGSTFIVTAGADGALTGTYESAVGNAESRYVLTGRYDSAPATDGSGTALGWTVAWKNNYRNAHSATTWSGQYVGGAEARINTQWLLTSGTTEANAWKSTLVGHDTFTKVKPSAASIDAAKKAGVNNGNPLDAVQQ

Row | Substance | S/B (signal to background ratio) [1] | further results
1 | PTHPQ | 130.7 | 
2 | PVHPM | 27.2 | 
3 | PVHPQ |  | S/B (signal to background ratio) [2]: 99.3
4 | PWHPQ | 182.5 | 
5 | PYHPM | 54.5 | 
6 | PYHPQ | 151.0 | 
7 | QDHPQ |  | S/B (signal to background ratio) [2]: 81.1
8 | QEHPQ |  | S/B (signal to background ratio) [2]: 63.4
9 | QFHPM |  | S/B (signal to background ratio) [2]: 77.7
10 | QFHPQ | 180.1 | 
11 | QGHPM | 56.0 | 
12 | QHHPM |  | S/B (signal to background ratio) [2]: 64.4
13 | QHHPQ | 136.3 | 
14 | QHPMH |  | S/B [3]: 12.4
15 | QHPMI |  | S/B [3]: 6.4
16 | QHPMK |  | S/B (signal to background ratio) [4]: 4.4
17 | QHPMR |  | S/B [3]: 9.5
18 | QHPMY |  | S/B [3]: 11.3
19 | QHPQA | 138.2 | 
20 | QHPQF |  | S/B (signal to background ratio) [2]: 117.5
21 | QHPQG | 122.5 | 
22 | QHPQH | 52.4 | 
23 | QHPQI |  | S/B [3]: 14.9
24 | QHPQK |  | S/B [3]: 15.8

Row | Substance | S/B (signal to background ratio) [1] | further results
25 | QHPQM | 40.0 | 
26 | QHPQN | 143.0 | 
27 | QHPQS |  | S/B (signal to background ratio) [2]: 87.0
28 | QHPQV |  | S/B (signal to background ratio) [2]: 84.6
29 | QKHPQ |  | S/B (signal to background ratio) [2]: 86.0
30 | QLHPQ |  | S/B (signal to background ratio) [2]: 117.5
31 | QMHPQ | 124.9 | 
32 | QNHPM |  | S/B (signal to background ratio) [2]: 58.4
33 | QNHPQ | 135.0 | 
34 | QPHPM | 52.0 | 
35 | QPHPQ |  | S/B (signal to background ratio) [2]: 90.3
36 | QQHPM | 43.3 | 
37 | QQHPQ | 136.6 | 
38 | QRHPM | 57.2 | 
39 | QRHPQ | 154.5 | 
40 | QSHPM | 42.7 | 
41 | QSHPQ | 135.3 | 
42 | QTHPQ |  | S/B (signal to background ratio) [2]: 90.7
43 | QWHPM |  | S/B (signal to background ratio) [2]: 72.2
44 | QWHPQ | 173.7 | 
45 | QYHPM |  | S/B (signal to background ratio) [2]: 82.7
46 | QYHPQ | 195.0 | 
47 | RAHPQ | 147.2 | 
48 | RDHPQ | 132.4 | 

Row | Substance | S/B (signal to background ratio) [1] | further results
49 | RFDLL [L-amino acid 5-mer array peptide] |  | S/B (signal to background ratio) [5]: 5.2; S/B [3]: 5.2
50 | RFHPM |  | S/B (signal to background ratio) [2]: 59.2
51 | RFHPQ | 161.9 | 
52 | RGHPM |  | S/B (signal to background ratio) [2]: 58.1
53 | RGHPQ | 135.0 | 
54 | RHDLY [L-amino acid 5-mer array peptide] |  | S/B (signal to background ratio) [5]: 6.6; S/B [3]: 6.6
55 | RHHPM | 53.8 | 
56 | RHHPQ | 148.9 | 
57 | RHPMA |  | S/B (signal to background ratio) [2]: 68.6
58 | RHPMD |  | S/B (signal to background ratio) [4]: 4.3
59 | RHPMI |  | S/B [3]: 8.0
60 | RHPMM |  | S/B [3]: 11.6
61 | RHPMQ |  | S/B [3]: 16.4
62 | RHPMR |  | S/B (signal to background ratio) [4]: 4.2
63 | RHPMS | 30.8 | 
64 | RHPMT |  | S/B (signal to background ratio) [4]: 5.1
65 | RHPMW |  | S/B [3]: 5.9
66 | RHPMY |  | S/B [3]: 14.4
67 | RHPQA | 134.8 | 
68 | RHPQD | 36.1 | 
69 | RHPQE |  | S/B [3]: 8.3
70 | RHPQF | 125.0 | 
71 | RHPQG | 124.2 | 
72 | RHPQL |  | S/B (signal to background ratio) [4]: 4.6

Row | Substance | S/B (signal to background ratio) [1] | further results
73 | RHPQN |  | S/B (signal to background ratio) [2]: 86.1
74 | RHPQP |  | S/B [3]: 7.4
75 | RHPQQ | 43.6 | 
76 | RHPQV |  | S/B (signal to background ratio) [2]: 94.3
77 | RHPQW | 20.3 | 
78 | RHPQY | 41.5 | 
79 | RKHPQ | 46.9 | 
80 | RLHPM | 33.8 | 
81 | RLHPQ | 137.3 | 
82 | RMHPM | 37.9 | 
83 | RMHPQ | 119.1 | 
84 | RNHPM | 54.6 | 
85 | RNHPQ | 136.2 | 
86 | RPHPQ | 133.3 | 
87 | RQHPM | 55.1 | 
88 | RQHPQ | 139.3 | 
89 | RRHPM | 31.6 | 
90 | RRHPQ |  | S/B (signal to background ratio) [2]: 103.0
91 | RSHPQ | 137.5 | 
92 | RTHPM | 49.0 | 
93 | RTHPQ | 125.7 | 
94 | RVHPQ | 126.3 | 
95 | RWHPM |  | S/B (signal to background ratio) [2]: 79.7
96 | RYHPQ | 175.9 | 

Row | Substance | S/B (signal to background ratio) [1] | further results
97 | SDHPM | 34.7 | 
98 | SDHPQ |  | S/B (signal to background ratio) [2]: 92.6
99 | SEHPM | 19.1 | 
100 | SFHPM |  | S/B (signal to background ratio) [2]: 65.3
101 | SFHPQ | 121.6 | 
102 | SGHPM | 54.4 | 
103 | SGHPQ | 128.5 | 
104 | SHHPQ | 155.1 | 
105 | SHPMA |  | S/B (signal to background ratio) [2]: 60.4
106 | SHPMS | 25.8 | 
107 | SHPMY |  | S/B [3]: 11.0
108 | SHPQA | 137.0 | 
109 | SHPQF | 132.4 | 
110 | SHPQG |  | S/B (signal to background ratio) [2]: 117.3
111 | SHPQL |  | S/B (signal to background ratio) [4]: 4.4
112 | SHPQM | 37.7 | 
113 | SHPQN | 135.7 | 
114 | SHPQQ | 41.4 | 
115 | SHPQR | 26.8 | 
116 | SHPQV |  | S/B (signal to background ratio) [2]: 98.7
117 | SHPQY | 47.6 | 
118 | SIHPQ |  | S/B (signal to background ratio) [2]: 118.3
119 | SKHPQ |  | S/B (signal to background ratio) [2]: 66.3
120 | SLHPM | 46.4 | 

Row | Substance | S/B (signal to background ratio) [1] | further results
121 | SLHPQ | 133.4 | 
122 | SMHPQ | 142.0 | 
123 | SNHPM | 54.1 | 
124 | SNHPQ | 144.9 | 
125 | SPHPQ | 145.4 | 
126 | SQHPM | 50.2 | 
127 | SRHPM |  | S/B (signal to background ratio) [2]: 57.8
128 | SRHPQ | 154.4 | 
129 | SSHPM | 50.5 | 
130 | SSHPQ | 134.8 | 
131 | STHPM | 48.2 | 
132 | STHPQ | 139.4 | 
133 | SVHPQ |  | S/B (signal to background ratio) [2]: 116.5
134 | SWHPQ | 171.5 | 
135 | TAHPQ | 120.0 | 
136 | TEHPQ | 57.0 | 
137 | TFHPM | 52.6 | 
138 | TFHPQ | 156.9 | 
139 | TGHPM | 53.4 | 
140 | TGHPQ | 128.8 | 
141 | THHPM |  | S/B (signal to background ratio) [2]: 58.0
142 | THPMA |  | S/B (signal to background ratio) [2]: 67.4
143 | THPMG | 43.8 | 
144 | THPMH |  | S/B [3]: 9.5

Row | Substance | S/B (signal to background ratio) [1] | further results
145 | THPMK |  | S/B (signal to background ratio) [4]: 4.1
146 | THPMM |  | S/B [3]: 11.1
147 | THPMR |  | S/B [3]: 8.7
148 | THPMY |  | S/B [3]: 10.9
149 | THPQA | 140.8 | 
150 | THPQG | 125.0 | 
151 | THPQH | 42.7 | 
152 | THPQK |  | S/B [3]: 14.5
153 | THPQL |  | S/B (signal to background ratio) [4]: 4.2
154 | THPQN | 136.1 | 
155 | THPQQ | 42.4 | 
156 | THPQS |  | S/B (signal to background ratio) [2]: 70.8
157 | THPQT |  | S/B [3]: 11.0
158 | THPQV |  | S/B (signal to background ratio) [2]: 88.9
159 | THPQY | 30.1 | 
160 | TIHPQ |  | S/B (signal to background ratio) [2]: 92.6
161 | TKHPQ |  | S/B (signal to background ratio) [2]: 61.5
162 | TLHPQ |  | S/B (signal to background ratio) [2]: 111.0
163 | TMHPM | 25.5 | 
